Measurements: BindingDB's records for patent US20250270212 (Padarn Therapeutics, 2025)

Target: Wee1-like protein kinase (Homo sapiens, UniProt P30291)
Assay: Wee1 Enzymatic Activity Inhibition Assay
Experimental: The enzymatic assay used to determine activity was a Luminescence assay using a Microplate Reader (BMG, ClarioStar Plus). The enzymatic reaction was carried out in assay buffer (40 mM TRIS-HCl pH 7.4-7.6, 20 mM MgCl2, 0.05 mM DTT, 0.1 mg/ml BSA, 5 mM MnCl2). The compounds were dispensed on a 384 well Diamond Well Plate (Axigen, Cat #P-384-120SQ-C-S) using the Biomek FX liquid handling system at 100× solutions of compounds in DMSO. 2×Wee1-PolyE4Y1 mix (final concentration 0.85 ng/μl of Wee1 and 0.2 μg/μl of PolyE4Y1) was prepared in 1× Assay buffer and 5.5 μl of mixture per well was added into 384w white Reaction plate with NBS (Corning, Cat #4513). 5.5 μl of PolyE4Y1 substrate w/o Wee1 in 1× buffer was used for negative control. Plates were centrifuged for 1 min at 100 g. Next step the Compounds were added to Reaction plate using Biomek station via following steps: 1 μl of 100× compounds (in DMSO) were mixed thoroughly with 49 μl of 2×10 μM ATP in Assay Buffer, then 5.5 μl of this mixture was added to Reaction plate with 5.5 μl of Wee1-PolyE4Y1 mix. Plates were centrifuged for 1 min at 100 g and incubated for 1 h at room temperature. Next 3 μL of ADP-Glo reagent (Promega, ADP-Glo™ Kinase Assay, Cat #V9102) per well was added. Plates were incubated for 30 minutes at room temperature. Then 6 μL of Kinase detection reagent (Promega, ADP-Glo™ Kinase Assay, Cat #V9102) per well was added and the Luminescence was measured using Microplate Reader.

Chain of Wee1-like protein kinase (P30291 whole entry): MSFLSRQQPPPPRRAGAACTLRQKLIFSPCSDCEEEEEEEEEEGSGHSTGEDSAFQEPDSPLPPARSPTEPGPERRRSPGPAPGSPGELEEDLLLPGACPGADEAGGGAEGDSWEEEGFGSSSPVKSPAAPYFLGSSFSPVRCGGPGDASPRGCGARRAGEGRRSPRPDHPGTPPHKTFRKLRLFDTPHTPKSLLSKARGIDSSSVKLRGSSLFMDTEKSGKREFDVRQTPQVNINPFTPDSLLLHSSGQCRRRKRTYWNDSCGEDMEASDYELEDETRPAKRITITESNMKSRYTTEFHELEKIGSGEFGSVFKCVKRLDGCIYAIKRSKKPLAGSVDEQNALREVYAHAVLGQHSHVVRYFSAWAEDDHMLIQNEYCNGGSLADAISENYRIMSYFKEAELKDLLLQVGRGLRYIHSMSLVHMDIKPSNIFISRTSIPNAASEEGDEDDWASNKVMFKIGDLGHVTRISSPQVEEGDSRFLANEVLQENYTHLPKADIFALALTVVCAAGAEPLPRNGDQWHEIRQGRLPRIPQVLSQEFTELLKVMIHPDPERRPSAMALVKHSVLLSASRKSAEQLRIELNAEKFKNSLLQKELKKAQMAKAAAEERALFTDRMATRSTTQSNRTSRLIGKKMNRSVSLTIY

| Structure (SMILES) | EC50 |
| --- | --- |
| C=CCn1c(=O)c2cnc(Nc3ccc(N4CCN(C(=O)c5cc(Cc6n[nH]c(=O)c7ccccc67)ccc5F)CC4)cc3)nc2n1-c1cccc(C(C)(C)O)c1 [US20250270212, Compound 1] | < 10 nM |
| C=CCn1c(=O)c2cnc(N3CCN(C(=O)c4cc(Cc5n[nH]c(=O)c6ccccc56)ccc4F)CC3)nc2n1-c1cccc(C(C)(C)O)n1 [US20250270212, Compound 2] | > 1000 nM |
| C=CCn1c(=O)c2cnc(NC3CCN(C(=O)c4cc(Cc5n[nH]c(=O)c6ccccc56)ccc4F)CC3)nc2n1-c1cccc(C(C)(C)O)n1 [US20250270212, Compound 4] | > 1000 nM |
| Cn1c(=O)c2cnc(N3CCN(C(=O)c4cc(Cc5n[nH]c(=O)c6ccccc56)ccc4F)CC3)nc2n1-c1ccccn1 [US20250270212, Compound 5] | > 1000 nM |
| C=CCn1c(=O)c2cnc(NCCNC(=O)c3cc(Cc4n[nH]c(=O)c5ccccc45)ccc3F)nc2n1-c1cccc(C(C)(C)O)n1 [US20250270212, Compound 6] | > 1000 nM |
| C=CCn1c(=O)c2cnc(Nc3ccc(N4CCN(C(=O)c5cc(Cn6c(=O)[nH]c(=O)c7c(F)cccc76)ccc5F)CC4)cc3)nc2n1-c1cccc(C(C)(C)O)n1 [US20250270212, Compound 16] | < 10 nM |
| Cn1c2nc(Nc3ccc(N4CCN(C(=O)c5cc(Cn6c(=O)[nH]c(=O)c7c(F)cccc76)ccc5F)CC4)cc3)ncc2c(=O)n1-c1ccccn1 [US20250270212, Compound 17] | > 1000 nM |
| C=CCn1c(=O)c2cnc(Nc3ccc(N4CCN(Cc5cc(Cn6c(=O)[nH]c(=O)c7c(F)cccc76)ccc5F)CC4)cc3)nc2n1-c1cccc(C(C)(C)O)n1 [US20250270212, Compound 34] | < 10 nM |
| C=CCn1c(=O)c2cnc(Nc3ccc(N4CCN(Cc5ccc(-c6[nH]c7cc(F)cc8c7c6CCNC8=O)cc5)CC4)cc3)nc2n1-c1ccccn1 [US20250270212, Compound 39] | < 10 nM |
| C=CCn1c(=O)c2cnc(NC3CCN(Cc4ccc(-c5[nH]c6cc(F)cc7c6c5CCNC7=O)cc4)CC3)nc2n1-c1cccc(C(C)(C)O)n1 [US20250270212, Compound 47] | > 1000 nM |

Next, values leading:

| EC50 | Structure (SMILES) |
| --- | --- |
| < 10 nM | Cn1c(=O)c2cnc(Nc3ccc(N4CCN(C(=O)c5cc(Cc6n[nH]c(=O)c7ccccc67)ccc5F)CC4)cc3)nc2n1-c1cccc(C(C)(C)O)n1 [US20250270212, Compound 7] |
| < 10 nM | Cn1c(=O)c2cnc(Nc3ccc(N4CCN(Cc5cc(Cc6n[nH]c(=O)c7ccccc67)ccc5F)CC4)cc3)nc2n1-c1cccc(C(C)(C)O)n1 [US20250270212, Compound 8] |
| > 1000 nM | Cn1c2nc(Nc3ccc(N4CCN(C(=O)c5cc(Cc6n[nH]c(=O)c7ccccc67)ccc5F)CC4)cc3)ncc2c(=O)n1-c1ccccn1 [US20250270212, Compound 12] |
| < 10 nM | C=CCn1c(=O)c2cnc(Nc3ccc(N4CCN(C(=O)c5cc(Cn6c(=O)[nH]c(=O)c7c(F)cccc76)ccc5F)CC4)cc3)nc2n1-c1ccccn1 [US20250270212, Compound 28] |
| > 1000 nM | Cn1c2nc(Nc3ccc(N4CCC(c5nc6cccc(C(N)=O)c6[nH]5)CC4)cc3)ncc2c(=O)n1-c1ccccn1 [US20250270212, Compound 91] |
| < 10 nM | Cn1c(=O)c2cnc(Nc3ccc(N4CCCC(c5nc6cccc(C(N)=O)c6[nH]5)C4)cc3)nc2n1-c1ccccn1 (stereo unspecified) [US20250270212, Compound 96] |
